Reference: PubChem BioAssay AID1259407 (Chemical Carcinogenesis Research Information System (CCRIS), 2018)
Calls of active or inactive are those of the source. No rule for the calls is given here.

System: CCRIS mutagenicity, Ames/micronucleus/aberration tests
Test: CCRIS mutagenicity studies
[1] = Test System: AMES SALMONELLA TYPHIMURIUM, Strain/Indicator: TA100, Metabolic Activation: NONE, Method: PREINCUBATION
[2] = Test System: AMES SALMONELLA TYPHIMURIUM, Strain/Indicator: TA100, Metabolic Activation: NONE, Method: STANDARD PLATE
[3] = Test System: AMES SALMONELLA TYPHIMURIUM, Strain/Indicator: TA100, Metabolic Activation: RAT, LIVER, S-9, AROCLOR 1254, Method: STANDARD PLATE

Measured: mutagenic call

O=[N+]([O-])c1ccc2ccc3c4c(cc5ccc1c2c53)[C@H](O)[C@@H](O)C=C4
active: Test System: AMES SALMONELLA TYPHIMURIUM, Strain/Indicator: TA98, Metabolic Activation: NONE active; positive | Test System: AMES SALMONELLA TYPHIMURIUM, Strain/Indicator: TA98, Metabolic Activation: RAT, LIVER, S-9, AROCLOR 1254 active; positive | Test System: CHINESE HAMSTER OVARY, Strain/Indicator: CHO-K1-BH4 (HGPRT), Metabolic Activation: NONE active; positive | Test System: CHINESE HAMSTER OVARY, Strain/Indicator: CHO-K1-BH4 (HGPRT), Metabolic Activation: RAT, LIVER, S-9, 3-METHYLCHOLANTHRENE active; positive

ClC(Cl)=C(Cl)C(Cl)=C(Cl)Cl
active: End Point: IN VITRO CHROMOSOMAL ABERRATIONS, Test System: CHL/IU CELLS, Metabolic Activation: NONE active; positive (structural changes) | End Point: IN VITRO MICRONUCLEUS, Test System: CHL/IU CELLS, Metabolic Activation: NONE active; positive | [2] active; positive | Test System: AMES SALMONELLA TYPHIMURIUM, Strain/Indicator: TA100, Metabolic Activation: RAT, LIVER, MICROSOMES AND GLUTATHIONE, Method: PREINCUBATION active; positive | Test System: AMES SALMONELLA TYPHIMURIUM, Strain/Indicator: TA100, Metabolic Activation: RAT, LIVER, S-9, AROCLOR 1254 (30%), Method: PREINCUBATION active; positive | [3] active; positive
inactive: End Point: IN VITRO CHROMOSOMAL ABERRATIONS, Test System: CHINESE HAMSTER OVARY CELLS, Metabolic Activation: NONE inactive; negative | End Point: IN VITRO CHROMOSOMAL ABERRATIONS, Test System: CHINESE HAMSTER OVARY CELLS, Metabolic Activation: RAT, LIVER, S-9, AROCLOR 1254 inactive; negative | [1] inactive; negative

C=C(C)C(=O)OCCCC
inactive: Test System: AMES SALMONELLA TYPHIMURIUM, Strain/Indicator: TA98, Metabolic Activation: HAMSTER, LIVER, S-9, AROCLOR 1254 (10%), Method: PREINCUBATION inactive; negative | Test System: AMES SALMONELLA TYPHIMURIUM, Strain/Indicator: TA98, Metabolic Activation: NONE, Method: PREINCUBATION inactive; negative | Test System: AMES SALMONELLA TYPHIMURIUM, Strain/Indicator: TA98, Metabolic Activation: NONE, Method: STANDARD PLATE inactive; negative | Test System: AMES SALMONELLA TYPHIMURIUM, Strain/Indicator: TA98, Metabolic Activation: RAT LIVER S-9, PHENOBARBITAL AND BETA-NAPHTHOFLAVONE, Method: PREINCUBATION inactive; negative | Test System: AMES SALMONELLA TYPHIMURIUM, Strain/Indicator: TA98, Metabolic Activation: RAT, LIVER, S-9, AROCLOR 1254 (10%), Method: PREINCUBATION inactive; negative | Test System: AMES SALMONELLA TYPHIMURIUM, Strain/Indicator: TA98, Metabolic Activation: RAT, LIVER, S-9, AROCLOR 1254, Method: STANDARD PLATE inactive; negative | Test System: AMES SALMONELLA TYPHIMURIUM, Strain/Indicator: TA98, Metabolic Activation: RAT, LIVER, S-9, SODIUM PHENOBARBITAL, Method: STANDARD PLATE inactive; negative | Test System: AMES SALMONELLA TYPHIMURIUM, Strain/Indicator: TA100, Metabolic Activation: HAMSTER, LIVER, S-9, AROCLOR 1254 (10%), Method: PREINCUBATION inactive; negative | [1] inactive; negative | [2] inactive; negative | Test System: AMES SALMONELLA TYPHIMURIUM, Strain/Indicator: TA100, Metabolic Activation: RAT LIVER S-9, PHENOBARBITAL AND BETA-NAPHTHOFLAVONE, Method: PREINCUBATION inactive; negative | Test System: AMES SALMONELLA TYPHIMURIUM, Strain/Indicator: TA100, Metabolic Activation: RAT, LIVER, S-9, AROCLOR 1254 (10%), Method: PREINCUBATION inactive; negative | [3] inactive; negative | Test System: AMES SALMONELLA TYPHIMURIUM, Strain/Indicator: TA100, Metabolic Activation: RAT, LIVER, S-9, SODIUM PHENOBARBITAL, Method: STANDARD PLATE inactive; negative | Test System: AMES SALMONELLA TYPHIMURIUM, Strain/Indicator: TA1535, Metabolic Activation: HAMSTER, LIVER, S-9, AROCLOR 1254 (10%), Method: PREINCUBATION inactive; negative | Test System: AMES SALMONELLA TYPHIMURIUM, Strain/Indicator: TA1535, Metabolic Activation: NONE, Method: PREINCUBATION inactive; negative | Test System: AMES SALMONELLA TYPHIMURIUM, Strain/Indicator: TA1535, Metabolic Activation: NONE, Method: STANDARD PLATE inactive; negative | Test System: AMES SALMONELLA TYPHIMURIUM, Strain/Indicator: TA1535, Metabolic Activation: RAT LIVER S-9, PHENOBARBITAL AND BETA-NAPHTHOFLAVONE, Method: PREINCUBATION inactive; negative | Test System: AMES SALMONELLA TYPHIMURIUM, Strain/Indicator: TA1535, Metabolic Activation: RAT, LIVER, S-9, AROCLOR 1254 (10%), Method: PREINCUBATION inactive; negative | Test System: AMES SALMONELLA TYPHIMURIUM, Strain/Indicator: TA1535, Metabolic Activation: RAT, LIVER, S-9, AROCLOR 1254, Method: STANDARD PLATE inactive; negative | Test System: AMES SALMONELLA TYPHIMURIUM, Strain/Indicator: TA1535, Metabolic Activation: RAT, LIVER, S-9, SODIUM PHENOBARBITAL, Method: STANDARD PLATE inactive; negative | Test System: AMES SALMONELLA TYPHIMURIUM, Strain/Indicator: TA1537, Metabolic Activation: HAMSTER, LIVER, S-9, AROCLOR 1254 (10%), Method: PREINCUBATION inactive; negative | Test System: AMES SALMONELLA TYPHIMURIUM, Strain/Indicator: TA1537, Metabolic Activation: NONE, Method: PREINCUBATION inactive; negative | Test System: AMES SALMONELLA TYPHIMURIUM, Strain/Indicator: TA1537, Metabolic Activation: NONE, Method: STANDARD PLATE inactive; negative | Test System: AMES SALMONELLA TYPHIMURIUM, Strain/Indicator: TA1537, Metabolic Activation: RAT LIVER S-9, PHENOBARBITAL AND BETA-NAPHTHOFLAVONE, Method: PREINCUBATION inactive; negative | Test System: AMES SALMONELLA TYPHIMURIUM, Strain/Indicator: TA1537, Metabolic Activation: RAT, LIVER, S-9, AROCLOR 1254 (10%), Method: PREINCUBATION inactive; negative | Test System: AMES SALMONELLA TYPHIMURIUM, Strain/Indicator: TA1537, Metabolic Activation: RAT, LIVER, S-9, AROCLOR 1254, Method: STANDARD PLATE inactive; negative | Test System: AMES SALMONELLA TYPHIMURIUM, Strain/Indicator: TA1537, Metabolic Activation: RAT, LIVER, S-9, SODIUM PHENOBARBITAL, Method: STANDARD PLATE inactive; negative | Test System: AMES SALMONELLA TYPHIMURIUM, Strain/Indicator: TA1538, Metabolic Activation: NONE, Method: STANDARD PLATE inactive; negative | Test System: AMES SALMONELLA TYPHIMURIUM, Strain/Indicator: TA1538, Metabolic Activation: RAT, LIVER, S-9, AROCLOR 1254, Method: STANDARD PLATE inactive; negative | Test System: AMES SALMONELLA TYPHIMURIUM, Strain/Indicator: TA1538, Metabolic Activation: RAT, LIVER, S-9, SODIUM PHENOBARBITAL, Method: STANDARD PLATE inactive; negative | Test System: E.COLI, Strain/Indicator: WP2UVRA/PKM101, Metabolic Activation: NONE, Method: PREINCUBATION inactive; negative | Test System: E.COLI, Strain/Indicator: WP2UVRA/PKM101, Metabolic Activation: RAT LIVER S-9, PHENOBARBITAL AND BETA-NAPHTHOFLAVONE, Method: PREINCUBATION inactive; negative
